B1: IFNγ: recombinant murine IFNγ (protein, UniProt P01580 23-155, looked up)
Interferon gamma: HGTVIESLESLNNYFNSSGIDVEEKSLFLDIWRNWQKDGDMKILQSQIISFYLRLFEVLKDNQAISNNISVIESHLITTFFSNSKAKKDAFMSIAKFEVNNPQVQRQAFNELIRVVHQLLPESSLRKRKRSRC
B2: IL-1β: recombinant murine IL-1β (protein, UniProt P10749 118-269, looked up)
Interleukin-1 beta: VPIRQLHYRLRDEQQKSLVLSDPYELKALHLNGQNINQQVIFSMSFVQGEPSNDKIPVALGLKGKNLYLSCVMKDGTPTLQLESVDPKQYPKKKMEKRFVFNKIEVKSKVEFESAEFPNWYISTSQAEHKPVFLGNNSGQDIIDFTMESVSS
B3: IL-6: recombinant murine IL-6 (protein, UniProt P08505 25-211, looked up)
Interleukin-6: FPTSQVRRGDFTEDTTPNRPVYTTSQVGGLITHVLWEIVEMRKELCNGNSDCMNNDDALAENNLKLPEIQRNDGCYQTGYNQEICLLKISSGLLEYHSYLEYMKNNLKDNKKDKARVLQRDTETLIHIFNQEVKDLHKIVLPTPISNALLTDKLESQKEWLRTKTIQFILKSLEEFLKVTLRSTRQT
B4: TNFα: recombinant murine TNFα (protein)
chain: LRSSSQNSSDKPVAHVVANHQVEEQLEWLSQRANALLANGMDLKDNQLVVPADGLYLVYSQVLFKGQGCPDYVLLTHTVSRFAISYQEKVNLLSAVKSPCPKDTPEGAELKPWYEPIYLGGVFQLEKGDQLSAEVNLPKYLDFAESGQVYFGVIAL

Columns and labels:
Peritoneal Macrophages = assay: Steroid-induced MIF secretion by peritoneal macrophages; assay type: cell-based, mouse; settings: 12 to 15 h
Method: Cells were incubated for 12 to 15 h with various steroids (at concentrations ranging from 10^−6M to 10^−14M).
Samples were resolved on 18% SDS polyacrylamide gels under reducing conditions and transferred onto nitrocellulose membrane (Schleicher and Schuell, Keene, N.H.) at 50 V and 150 mA for 16 h. Membranes were blocked with 500 mM NaCl, 50 mM Tris-Base, pH 7.5 buffer containing 5% nonfat dry milk and 0.05% Tween-20 and incubated first with polyclonal anti-rMIF serum and then with horseradish peroxidase-conjugated goat anti-rabbit IgG antibody (each diluted 1:1000 in 500 mM NaCl, 50 mM Tris-Base, pH 7.5 buffer with 1% BSA). […] Incubations were 1 h each. MIF was visualized by development with chloronaphtol/H2O2 or with TMB substrate.

RAW macrophages = assay: Inhibition of the macrophage MIF response to dexamethasone; assay type: cell-based, mouse; settings: pretreatment and co-administration, 10^−6M
Method: RAW 264.7 murine macrophages were obtained from the American Type Culture Collection (Rockville, Md.). Cells were grown in RPMI 1640 medium (Gibco, Grand Island, N.Y.), 10% heat-inactivated fetal bovine serum (FBS) (HyClone, Logan, Utah), 50 μg/ml of carbenicillin and gentamicin. […] After 3 h of incubation at 37° C. in a humidified atmosphere with 5% CO2, nonadherent cells were removed and wells were washed twice with RPMI/1% FBS. In some experiments designed to test for inhibition of MIF release, test compounds were then added to the culture media. For example, the cells were pre-treated with 20α-dihydrocorticol at a final concentration of 10^−6M. Cells then were incubated for 12-15 h with various steroids at concentrations ranging from 10^−6M to […] (e.q., dexamethasone), along with the desired test compound (e.g., 20α-dihydrocortisol) if any. At the end of experiment, cell culture media were collected and centrifuged (10 min at 800 g). Cell-conditioned media were concentrated 10-fold by membrane filtration (10 kDa cut-off) (Centricon-10, Amicon, Beverly, N.Y.).
Samples were resolved on 18% SDS polyacrylamide gels under reducing conditions and transferred onto nitrocellulose membrane (Schleicher and Schuell, Keene, N.H.) at 50 V and 150 mA for 16 h. […]

[1] = test system: Sprague-Dawley female rats; assay: Serum MIF after i.v. steroid injection; assay type: in vivo, rat; settings: 10 mg/kg i.v., serum Western blotting
Method: Canulated Sprague-Dawley female rats were purchased from Zivic-Miller. Animals were housed with free access to food and water and were acclimatized for at least 2 days prior to experimentation. Rats were injected i.v. through the jugular vein with either dexamethasone (1, 10 or 20 mg/kg), or with RU38486 (mifepristone) (1 or 10 mg/kg), or with the two drugs together (both at 10 mg/kg, RU38486 was injected 15 min. before dexamethasone). Serum was collected 3, 6, and 9 hours post-steroids injection and analyzed by Western blotting with anti-MIF antibody.

AtT-20 pituitary cells = assay: MIF release from pituitary (AtT-20) cells (Western blotting); assay type: cell-based, mouse; settings: 1-100 ng/ml
Method: AtT-20 cells were cultured for 24 hours in serum-free medium (enriched serum-free Joklik's medium from Gibco) containing various concentrations of LPS (E. coli LPS 0111:B4 from Sigma) at 0.5 μg/ml-50 μg/ml. […] This protein was transferred to polyvinylidene difluoride membrane and its primary N-terminal amino acid sequence was determined by automated gas-phase sequencing (Applied Biosystems).
MIF release from pituitary (AtT-20) cells was analyzed by Western blotting with anti-MIF antibody (FIG. 8). 1.5×10^5 pituitary cells were cultured serum-free for 18 h with different concentrations of LPS. After transfer, nitrocellulose membranes were incubated with rabbit anti-rMIF serum (1:1000 dilution) and bound antibody visualized with horseradish peroxidase-conjugated goat anti-rabbit antibody. 100 ng of rMIF was electrophoresed on the same gel for reference. Control supernatants (C) contained 1 μg/ml LPS that was added after removal of cells.

[2] = test system: thioglycollate-elicited peritoneal macrophages; assay: MIF secretion by thioglycollate-elicited peritoneal macrophages stimulated with LPS or IFNγ plus LPS; assay type: cell-based, mouse; settings: IFNγ 100 IU/ml given 1 h prior to LPS
Method: After 3 h of incubation at 37° C. in a humidified atmosphere with 5% CO2, nonadherent cells were removed and wells were washed twice with RPMI/1% FBS. Cells then were incubated for 12 h with LPS (at concentrations ranging from 1 pg/ml to 1 μg/ml) or with cytokines (1 or 10 ng/ml for TNFα, IL-1β, and IL-6, and 10, 100 or 1000 IU/ml for IFNγ) diluted in RPMI/1% FBS. For time-course experiments, conditioned media of parallel cultures were removed at 3, 6, 9, 12 and 15 h intervals after LPS stimulation. […] Cells were incubated for 12 h either with LPS or with IFNγ plus LPS. When co-stimulated with IFNγ and LPS, cells were first incubated for an hour with IFNγ (100 IU/ml) before addition of LPS at the indicated concentrations. At the end of each experiment, cell-culture media were collected, centrifuged (10 min at 800 g), and supplemented with PMSF (1 mM). Supernatants then were concentrated 10-fold by membrane filtration (10 kD cut-off) (Centricon-10, Amicon, Beverly, N.Y.). […]
For Western blotting, samples were resolved on 18% SDS polyacrylamide gels under reducing conditions and transferred onto nitrocellulose membrane (Schleicher and Schuell, Keene, N.H.) at 50 V and 150 mA for 16 h. […] Serum MIF bands were quantified by laser densitometry (Shimadzu FDU-3, CS-9000U, Braintree, Mass.). Faint densitometric signals in the MIF region were detected in most sera prior to LPS administration (0 h). […]

Molecule | Range of Steroid Concentrations Inducing MIF in Peritoneal Macrophages (Peritoneal Macrophages) | MIF release from pituitary cells (AtT-20 pituitary cells) | other results
C[C@]12CCC(=O)C=C1CC[C@@H]1[C@@H]2[C@@H](O)C[C@@]2(C)[C@H]1CC[C@]2(O)[C@@H](O)CO [4-pregnene-11β,17α,20α,21-tetrol-3-one] | 10^−10 to 10^−14 M |  | Effect on the MIF response to dexamethasone (RAW macrophages): attenuates or abolishes
C[C@]12CCC(=O)C=C1CC[C@@H]1[C@@H]2[C@@H](O)C[C@]2(C=O)[C@@H](C(=O)CO)CC[C@@H]12 [Aldosterone] | 10^−8 to 10^−14 M |  | 
C[C@@H]1C[C@H]2[C@@H]3CCC4=CC(=O)C=C[C@]4(C)[C@@]3(F)[C@@H](O)C[C@]2(C)[C@@]1(O)C(=O)CO [Dexamethasone] | 10^−8 to 10^−12 M |  | 
C[C@]12CCC(=O)C=C1CC[C@@H]1[C@@H]2[C@@H](O)C[C@@]2(C)[C@H]1CC[C@]2(O)C(=O)CO [Hydrocortisone] | 10^−8 to 10^−16 M |  | 
CC#C[C@]1(O)CC[C@H]2[C@@H]3CCC4=CC(=O)CCC4=C3[C@@H](c3ccc(N(C)C)cc3)C[C@@]21C [RU-38486 (mifepristone), mifepristone] |  |  | MIF secretion in vivo [1]: induced MIF secretion
C[C@]12CC[C@H]3[C@@H](CCC4=CC(=O)CC[C@@]43C)[C@@H]1CC[C@@H]2O [Testosterone] | 10^−8 to 10^−14 M |  | 
B1 |  | not released | Increase in LPS responsiveness on co-stimulation [2]: > 1000 fold
B2 |  | not released | 
B3 |  | not released | 
B4 |  | not released | 

Source: patent US7517523B2, “Anti-MIF antibodies” (Cytokine PharmaSciences, Inc., priority 1993, dated 2009)
